The values below come from patent US9815841B2, “Compounds” (GLAXOSMITHKLINE INTELLECTUAL PROPERTY DEVELOPMENT LIMITED, priority 2014, dated 2017).

Some results are limits rather than exact numbers.

For the assay, the target named is T1, purified recombinant 6HIS-Tev-LRRK2 (1326-2527) (Homo sapiens, UniProt Q5S007).
T1 construct: A LRRK2 cDNA encoding residues 1326-2527 was received from Dundee University; made in house; host or cells: Spodoptera frugiperda (Sf9) insect cells, baculovirus (pFB-HTb)
T1 sequence (Q5S007 1326-2527): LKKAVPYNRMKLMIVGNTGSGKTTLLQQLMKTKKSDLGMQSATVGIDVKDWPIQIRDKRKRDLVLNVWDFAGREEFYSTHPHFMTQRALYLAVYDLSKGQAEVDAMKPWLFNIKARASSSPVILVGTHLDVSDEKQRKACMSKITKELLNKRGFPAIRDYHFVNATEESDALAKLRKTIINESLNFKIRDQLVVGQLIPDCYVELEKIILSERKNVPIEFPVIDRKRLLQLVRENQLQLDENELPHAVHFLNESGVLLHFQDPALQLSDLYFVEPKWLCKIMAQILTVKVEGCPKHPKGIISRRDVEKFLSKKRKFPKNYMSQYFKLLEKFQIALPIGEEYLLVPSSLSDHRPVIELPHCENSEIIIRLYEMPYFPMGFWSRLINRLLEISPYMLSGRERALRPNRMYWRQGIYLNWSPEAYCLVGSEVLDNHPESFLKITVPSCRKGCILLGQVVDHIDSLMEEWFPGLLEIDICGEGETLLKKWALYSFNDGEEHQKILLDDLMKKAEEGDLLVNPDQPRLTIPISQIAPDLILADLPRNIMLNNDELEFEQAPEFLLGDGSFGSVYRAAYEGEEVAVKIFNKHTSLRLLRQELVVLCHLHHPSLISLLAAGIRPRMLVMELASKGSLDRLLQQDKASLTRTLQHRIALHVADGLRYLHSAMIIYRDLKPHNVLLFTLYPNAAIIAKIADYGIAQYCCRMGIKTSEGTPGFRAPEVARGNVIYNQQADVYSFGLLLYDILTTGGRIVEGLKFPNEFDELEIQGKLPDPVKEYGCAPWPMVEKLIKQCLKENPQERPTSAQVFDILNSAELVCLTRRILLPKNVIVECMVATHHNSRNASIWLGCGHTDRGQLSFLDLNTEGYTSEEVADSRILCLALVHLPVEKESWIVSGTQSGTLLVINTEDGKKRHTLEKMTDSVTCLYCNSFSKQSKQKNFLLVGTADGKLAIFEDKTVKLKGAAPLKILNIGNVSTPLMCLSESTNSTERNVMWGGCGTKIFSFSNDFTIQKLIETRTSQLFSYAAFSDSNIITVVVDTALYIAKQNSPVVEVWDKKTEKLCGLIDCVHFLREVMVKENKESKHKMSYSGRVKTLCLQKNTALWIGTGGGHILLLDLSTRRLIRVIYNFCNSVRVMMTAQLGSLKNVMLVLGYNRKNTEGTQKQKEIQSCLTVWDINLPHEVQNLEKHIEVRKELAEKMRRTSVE
Kind of assay: Recombinant LRRK2 enzyme peptide substrate TR-FRET assay. In kind it is biochemical. Particulars: 60 nM LRRK2 (1326-2527), 1 uM Biotin-longer LRRKtide, 10 uM ATP; read-out: recombinant LRRK2 enzyme peptide substrate TR-FRET assay (pIC50) (converted). How it is done: This gene fragment was subcloned into pFB-HTb (Invitrogen) using BamHI and NotI restriction sites. The LRRK2 plasmid was recombined into the baculovirus genome according to the BAC-to-BAC protocol described by Invitrogen. Transfection into Spodoptera frugiperda (Sf9) insect cells was performed using Cellfectin (Invitrogen), according to the manufacturer's protocol to generate P1 and P2 baculovirus stocks.
Sf9 cells were grown in HyClone SFX (Thermo Scientific) growth media at 27° C., 80 rpm in shake flask until of a sufficient volume to inoculate a bioreactor. […] The cells were infected with P2 Baculovirus at a multiplicity of infection (MOI) of 3. The cultivation was continued for a 48 hour expression phase. The infected cells were removed from the growth media by centrifugation at 2500 g using a Sorvall RC 3C Plus centrifuge at 2500 g for 20 minutes. The cell pellet was immediately frozen and subsequently supplied for purification.
A 260 g pellet was allowed to thaw in a water bath at 27° C. with 800 ml lysis buffer/buffer A (50 mm Tris-HCl pH 8.5, 300 mM NaCl, 1 mm DTT, 10% glycerol, 1 ml/L calbiochem complete protease inhibitor cocktail and benzonase (50 ul/800 ml)) before being dounce homogenised on ice using 20 strokes per 100 ml. The suspension was packed in ice and sonicated at 50% amplitude for 3 min 10 sec on/off using a ¾″ probe. The suspension was then centrifuged at 100,000 g for 90 min, at 4° C.
The lysate (700 ml) was decanted from the insoluble pellet and contacted for 3 h at 4 C with 10 ml His bind Ni NTA resin by end over end mixing. The resin was recovered by centrifugation, 3000 g, 5 min at 4 C, and packed in an XK16 column. The column was then washed with 10 column volumes buffer A, 10 column volumes buffer B (buffer A+1M NaCl) and 10 column volumes buffer C (buffer A+20 mM imidazole). The column was then eluted with 15 column volumes buffer D (buffer A+300 mM imidazole) collecting 2 ml fractions. All washes and elution were conducted at 4 ml/min.
Fractions identified by SDS-PAGE as containing protein of interest were pooled and loaded directly onto a 320 ml SEC Superdex 200 pg column that was pre-equilibrated with buffer E (50 mM Tris-HCl pH 8.5, 300 mM NaCl, 10% glycerol, 1 mM DTT). The column was loaded and eluted with 1.2 column volumes buffer E at 2 ml/min collecting 2 ml fractions. Fractions identified by SDS-PAGE as containing protein of interest were tested for activity.
Production of Biotin-Longer LRRKtide
The resulting crude peptide was cleaved from the resin using a 95:2.5:2.5 mix of trifluoroacetic acid:triisopropylsilane:water.
Recombinant LRRK2 Enzyme Peptide Substrate TR-FRET Assay
Assay Protocol • 1. A 10 mM test compound was dissolved in 100% DMSO and serially diluted 1 in 4. 100 nL was then added to a 384 well low volume black plate, excluding columns 6 and 18. 100 nL of DMSO was added to columns 6 and 18 as controls wells. […] Test plates were then incubated for 30 minutes at room temperature. • 3. 3 uL ‘substate solution’ containing 2 uM Biotin-longer LRRKtide peptide substrate and 20 uM ATP was added to all wells of the plate using a multidrop combi dispenser giving a final assay concentration of 1 uM Biotin-longer LRRKtide and 10 uM ATP. Test plates were then incubated for 2 hours at room temperature. (Incubation may vary depending on rate and linearity of reaction with different enzyme batches). • 4. […] Data is analysed using ActivityBase software (IDBS). Dilutions and concentrations of reagents determined on a batch to batch basis
Background: Time-resolved FRET reads energy transfer from a long-lived donor to a nearby acceptor.
With `CCOc1nc(Nc2ccc(C(=O)N3CCOCC3)cc2OC)nc2[nH]ccc12` [Example E1, (4-((4-ethoxy-7H-pyrrolo-[2,3-d]-pyrimidin-2-yl)amino)-3-methoxyphenyl)(morpholino)methanone], the IC50 was 12.6 nM. As for `CCOc1nc(Nc2cc(F)c(C(=O)N3CCOCC3)cc2OC)nc2[nH]ccc12` [Example E2, (4-((4-ethoxy-7H-pyrrolo-[2,3-d]-pyrimidin-2-yl)amino)-2-fluoro-5-methoxyphenyl)(morpholino)methanone], the IC50 is 7.94 nM. `CCOc1nc(Nc2ccc(C(=O)N3CCN(C)CC3)cc2OC)nc2[nH]ccc12` [Example E3, (4-((4-ethoxy-7H-pyrrolo-[2,3-d]-pyrimidin-2-yl)amino)-3-methoxyphenyl)(4-methylpiperazin-1-yl)-methanone]: the IC50 was 7.94 nM. The value for `CCOc1nc(Nc2ccc(C(=O)N3CCC(N4CCN(C)CC4)CC3)cc2OC)nc2[nH]ccc12` [Example E4, (4-((4-ethoxy-7H-pyrrolo-[2,3-d]pyrimidin-2-yl)amino)-3-methoxyphenyl)(4-(4-methylpiperazin-1-yl)-piperidin-1-yl)-methanone] was no more than 10 nM; that for `CCOc1nc(Nc2ccc(C(=O)N3CCOCC3)cc2)nc2[nH]ccc12` [Example E9, (4-((4-ethoxy-7H-pyrrolo-[2,3-d]pyrimidin-2-yl)amino)phenyl)(morpholino)methanone] was no more than 10 nM. With `CCOc1nc(Nc2ccc(C(=O)N3CCC4(CC3)CN(C)C4)cc2OC)nc2[nH]ccc12` [Example E13, (4-((4-ethoxy-7H-pyrrolo-[2,3-d]-pyrimidin-2-yl)amino)-3-methoxyphenyl)(2-methyl-2,7-diazaspiro-[3.5]-nonan-7-yl)methanone] the figure was no more than 10 nM; with `CCOc1nc(Nc2ccc(C(=O)N3CCC4(CC3)CC4)cc2OC)nc2[nH]ccc12` [Example E16, (4-((4-ethoxy-7H-pyrrolo-[2,3-d]-pyrimidin-2-yl)amino)-3-methoxyphenyl)(6-azaspiro-[2.5]octan-6-yl)methanone], 15.8 nM; with `CCOc1cc(C(=O)N2CCOCC2)ccc1Nc1nc(OCC)c2cc[nH]c2n1` [Example E20, (3-ethoxy-4-((4-ethoxy-7H-pyrrolo-[2,3-d]pyrimidin-2-yl)amino)phenyl)(morpholino)methanone], 10 nM. With `CCOc1nc(Nc2ccc(C(=O)N3CCN(C)CC3)cc2OC(C)C)nc2[nH]ccc12` [Example E24, (4-((4-ethoxy-7H-pyrrolo-[2,3-d]pyrimidin-2-yl)amino)-3-isopropoxyphenyl)(4-methylpiperazin-1-yl)methanone] the figure was 10 nM.

Consider `CCOc1nc(Nc2ccc(C(=O)N3CCOC[C@@H]3C)cc2OC)nc2[nH]ccc12` [Example E27, (S)-(4-((4-ethoxy-7H-pyrrolo-[2,3-d]pyrimidin-2-yl)amino)-3-methoxyphenyl)(3-methylmorpholino)methanone], for which the IC50 was no more than 10 nM. As for `CCOc1nc(Nc2ccc(C(=O)N3CCN(C)CC3)cc2OC)nc2[nH]cc(C)c12` [Example E31, (4-((4-ethoxy-5-methyl-7H-pyrrolo-[2,3-d]pyrimidin-2-yl)amino)-3-methoxyphenyl)(4-methylpiperazin-1-yl)methanone], the IC50 is no more than 10 nM. The value for `CCOc1nc(Nc2ccc(C(=O)N3CCN(C)C[C@H]3C)cc2OC)nc2[nH]ccc12` [Example E40, (R)-(2,4-dimethylpiperazin-1-yl)(4-((4-ethoxy-7H-pyrrolo-[2,3-d]-pyrimidin-2-yl)-amino)-3-methoxyphenyl)methanone] was 10 nM.
